Like-named read-outs stand apart in the source and are kept apart here. Starred links: 1 amine or outer side, 2 acyl side, 3 side chain; linkers in the order of their positions; H or OH if unused. Non-standard residues stand in square brackets, D forms with d. Residues, ends and D or L forms follow the SMILES beside them. NMeAbu(3S-Me,4-OC2H4Mor) = CN[C@H](C(=O)O)[C@H](C)COCCN1CCOCC1; X16 = C[C@H](CN1CCN(S(C)(=O)=O)CC1)[C@@H](C(=O)[*:2])N(C)[*:1]; X7 = C[C@H](COCCN1CCS(=O)(=O)CC1)[C@@H](C(=O)[*:2])N(C)[*:1]; X5 = C[C@H](COC(=O)N1CCN(C)CC1)[C@@H](C(=O)[*:2])N(C)[*:1]; X11 = CCN1CCN(C[C@H](C)[C@@H](C(=O)[*:2])N(C)[*:1])CC1; X4 = C[C@H](CS(C)(=O)=O)[C@@H](C(=O)[*:2])N(C)[*:1]; X3 = C[C@H](CN1CCOCC1)[C@@H](C(=O)[*:2])N(C)[*:1]; MeBmt = C/C=C/C[C@@H](C)[C@@H](O)[C@H](NC)C(=O)O; X77 = COC[C@H](C)[C@@H](C(=O)[*:2])N(C)[*:1]; NMeL = CN[C@@H](CC(C)C)C(=O)O; NMeV = CN[C@H](C(=O)O)C(C)C; dNMeA = CN[C@H](C)C(=O)O; Abu = CC[C@H](N)C(=O)O
What was measured:
[1] = target: cyclophilin B (CypB) (Homo sapiens (Human), UniProt P23284); assay: Inhibitor binding to cyclophilin proteins by SPR, CypB; set-up: unit not given here; conditions: 1:1 binding model
Chain of cyclophilin B (CypB) (P23284 34-216): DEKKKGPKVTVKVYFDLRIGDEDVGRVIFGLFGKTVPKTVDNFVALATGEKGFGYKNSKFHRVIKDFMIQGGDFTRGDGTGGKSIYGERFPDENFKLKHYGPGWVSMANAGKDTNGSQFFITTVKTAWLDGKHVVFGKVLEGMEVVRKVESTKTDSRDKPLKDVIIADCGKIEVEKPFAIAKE
Method in brief: (§1)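 Mono-biotinylated avi-tagged cyclophilins captured on a Biotin CAPture chip. Single-cycle kinetics at 50 μL/min, 1 min contacts, 10 min final dissociation, in 10 mM HEPES pH 7.4, 150 mM NaCl, 0.05% P20, 3% DMSO. kon, koff and KD from a 1:1 binding model.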

[2] = tested on: peripheral blood mononuclear cells (PBMC); assay: Anti-proliferative or immunosuppressive activity, BrdU incorporation in PHA-stimulated PBMC; type: cell-based; conditions: PHA 3 μg/ml, 60 hour compound treatment; read-out: EMV PBMC IC50
Method in brief: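 Fresh PBMCs from two donors, 30,000 per well in X-VIVO 15 medium, stimulated with 3 μg/ml PHA to drive T-cell proliferation. Proliferation measured as BrdU incorporation into DNA by BrdU ELISA.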

[3] = target: CYP3A4 (Homo sapiens (Human), UniProt P08684); assay: Time-dependent inhibition of CYP3A4;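 note: Two-step in vitro assay, kobs derived from residual CYP3A4 activity versus preincubation time per concentration, then kinact and KI by nonlinear fit of kobs against concentration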
Chain of CYP3A4 (P08684 whole entry): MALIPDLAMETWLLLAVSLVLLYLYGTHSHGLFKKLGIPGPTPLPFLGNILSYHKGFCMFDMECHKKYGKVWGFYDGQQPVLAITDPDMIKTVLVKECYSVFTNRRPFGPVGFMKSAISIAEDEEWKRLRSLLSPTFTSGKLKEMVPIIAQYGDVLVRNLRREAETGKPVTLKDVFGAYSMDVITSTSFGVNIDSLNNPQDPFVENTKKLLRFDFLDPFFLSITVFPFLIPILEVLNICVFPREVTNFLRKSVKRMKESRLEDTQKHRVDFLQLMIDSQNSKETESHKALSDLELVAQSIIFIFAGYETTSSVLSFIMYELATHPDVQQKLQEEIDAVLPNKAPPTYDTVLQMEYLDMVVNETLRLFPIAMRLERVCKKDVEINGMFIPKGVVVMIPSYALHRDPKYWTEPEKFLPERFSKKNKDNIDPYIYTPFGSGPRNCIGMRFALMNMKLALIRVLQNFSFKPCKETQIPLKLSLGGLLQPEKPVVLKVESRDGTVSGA
Description: Method 5: Measuring Time-Dependent Inhibition of CYP3A4
The CYP3A4 time dependent inhibition potential of various inhibitors was determined by a two step in vitro assay. […] The inactivation rate constant (kobs) was obtained by plotting the activity remaining over pre-incubation time for each concentration of compound. The maximal inactivation rate (kinact) and the inactivation potency (KI) were calculated by non linear regression analysis of the inactivation rate constant (kobs) versus compound concentrations [I] curve according to the equation kobs=[kinact·[I]]/[KI+[I]]

[4] = target: CypF (Homo sapiens (Human), UniProt P30405); assay: Inhibitor binding to cyclophilin proteins by SPR, CypF; conditions: 1:1 binding model
Chain of CypF (P30405 30-207): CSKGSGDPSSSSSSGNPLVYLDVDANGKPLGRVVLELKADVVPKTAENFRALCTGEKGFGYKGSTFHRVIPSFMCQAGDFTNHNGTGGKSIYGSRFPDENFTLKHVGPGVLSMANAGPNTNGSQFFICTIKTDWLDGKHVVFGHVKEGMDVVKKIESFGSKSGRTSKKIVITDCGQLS
Method in brief: as §1

[5] = target: cyclophilin A (CypA) (Homo sapiens (Human), UniProt P62937); assay: Inhibitor binding to cyclophilin proteins by SPR, CypA; set-up: unit not given here; conditions: 1:1 binding model;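 note: Single-cycle kinetics on a Biacore T200, compound injected at several concentrations for 1 min each at 50 µL/min, then 10 min dissociation, in HEPES pH 7.4 buffer with 3% DMSO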
Chain of cyclophilin A (CypA) (P62937 whole entry): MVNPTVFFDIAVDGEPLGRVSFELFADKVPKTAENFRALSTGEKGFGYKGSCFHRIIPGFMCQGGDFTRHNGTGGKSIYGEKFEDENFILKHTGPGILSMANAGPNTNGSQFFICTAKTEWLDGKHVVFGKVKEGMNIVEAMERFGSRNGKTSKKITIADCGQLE

[6] = tested on: genotype 1b subgenomic HCV replicon in Huh7.5 cells; type: cell-based, hepatitis C virus; conditions: read-out: RPLN-1b IC50
Method in brief: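 Huh7.5 cells carrying genotype 1b subgenomic HCV replicon with renilla luciferase-neomycin reporter, in phenol red-free DMEM without G418. Luciferase measured after 72 h compound exposure relative to DMSO-treated cells; cytotoxicity (CC50) by Cell Titer-Glo.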

[7] = target: organic anion transporting polypeptide 1B1 (OATP1B1) (Homo sapiens (Human), UniProt Q9Y6L6); assay: OATP assay in CHO-OATP1B1 cells;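 note: inhibition of probe substrate uptake into the cells, ten minutes exposure, accumulated substrate read by fluorescence once cells were lysed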
Chain of organic anion transporting polypeptide 1B1 (OATP1B1) (Q9Y6L6 whole entry): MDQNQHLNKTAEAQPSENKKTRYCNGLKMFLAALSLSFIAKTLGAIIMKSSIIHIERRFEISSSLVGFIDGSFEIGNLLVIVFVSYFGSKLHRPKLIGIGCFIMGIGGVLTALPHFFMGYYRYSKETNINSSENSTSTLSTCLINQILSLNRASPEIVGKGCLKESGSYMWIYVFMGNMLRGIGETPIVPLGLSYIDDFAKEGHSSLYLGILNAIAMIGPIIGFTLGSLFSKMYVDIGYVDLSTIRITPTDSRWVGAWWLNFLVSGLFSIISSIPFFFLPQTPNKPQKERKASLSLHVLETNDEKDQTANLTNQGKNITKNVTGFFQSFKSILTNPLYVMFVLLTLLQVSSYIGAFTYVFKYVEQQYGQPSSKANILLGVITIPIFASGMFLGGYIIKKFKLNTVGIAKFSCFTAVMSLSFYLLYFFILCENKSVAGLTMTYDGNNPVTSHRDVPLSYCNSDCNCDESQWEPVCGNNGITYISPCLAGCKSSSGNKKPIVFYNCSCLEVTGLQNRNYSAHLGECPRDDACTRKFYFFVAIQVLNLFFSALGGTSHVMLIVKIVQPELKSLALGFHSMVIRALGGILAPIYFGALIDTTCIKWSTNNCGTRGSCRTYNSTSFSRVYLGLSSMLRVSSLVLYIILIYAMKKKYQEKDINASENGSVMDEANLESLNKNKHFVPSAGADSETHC

[8] = target: Human MRP2 (Homo sapiens (Human), UniProt Q92887); assay: MRP2 transporter vesicle assay; type: in vitro ADME
Chain of Human MRP2 (Q92887 whole entry): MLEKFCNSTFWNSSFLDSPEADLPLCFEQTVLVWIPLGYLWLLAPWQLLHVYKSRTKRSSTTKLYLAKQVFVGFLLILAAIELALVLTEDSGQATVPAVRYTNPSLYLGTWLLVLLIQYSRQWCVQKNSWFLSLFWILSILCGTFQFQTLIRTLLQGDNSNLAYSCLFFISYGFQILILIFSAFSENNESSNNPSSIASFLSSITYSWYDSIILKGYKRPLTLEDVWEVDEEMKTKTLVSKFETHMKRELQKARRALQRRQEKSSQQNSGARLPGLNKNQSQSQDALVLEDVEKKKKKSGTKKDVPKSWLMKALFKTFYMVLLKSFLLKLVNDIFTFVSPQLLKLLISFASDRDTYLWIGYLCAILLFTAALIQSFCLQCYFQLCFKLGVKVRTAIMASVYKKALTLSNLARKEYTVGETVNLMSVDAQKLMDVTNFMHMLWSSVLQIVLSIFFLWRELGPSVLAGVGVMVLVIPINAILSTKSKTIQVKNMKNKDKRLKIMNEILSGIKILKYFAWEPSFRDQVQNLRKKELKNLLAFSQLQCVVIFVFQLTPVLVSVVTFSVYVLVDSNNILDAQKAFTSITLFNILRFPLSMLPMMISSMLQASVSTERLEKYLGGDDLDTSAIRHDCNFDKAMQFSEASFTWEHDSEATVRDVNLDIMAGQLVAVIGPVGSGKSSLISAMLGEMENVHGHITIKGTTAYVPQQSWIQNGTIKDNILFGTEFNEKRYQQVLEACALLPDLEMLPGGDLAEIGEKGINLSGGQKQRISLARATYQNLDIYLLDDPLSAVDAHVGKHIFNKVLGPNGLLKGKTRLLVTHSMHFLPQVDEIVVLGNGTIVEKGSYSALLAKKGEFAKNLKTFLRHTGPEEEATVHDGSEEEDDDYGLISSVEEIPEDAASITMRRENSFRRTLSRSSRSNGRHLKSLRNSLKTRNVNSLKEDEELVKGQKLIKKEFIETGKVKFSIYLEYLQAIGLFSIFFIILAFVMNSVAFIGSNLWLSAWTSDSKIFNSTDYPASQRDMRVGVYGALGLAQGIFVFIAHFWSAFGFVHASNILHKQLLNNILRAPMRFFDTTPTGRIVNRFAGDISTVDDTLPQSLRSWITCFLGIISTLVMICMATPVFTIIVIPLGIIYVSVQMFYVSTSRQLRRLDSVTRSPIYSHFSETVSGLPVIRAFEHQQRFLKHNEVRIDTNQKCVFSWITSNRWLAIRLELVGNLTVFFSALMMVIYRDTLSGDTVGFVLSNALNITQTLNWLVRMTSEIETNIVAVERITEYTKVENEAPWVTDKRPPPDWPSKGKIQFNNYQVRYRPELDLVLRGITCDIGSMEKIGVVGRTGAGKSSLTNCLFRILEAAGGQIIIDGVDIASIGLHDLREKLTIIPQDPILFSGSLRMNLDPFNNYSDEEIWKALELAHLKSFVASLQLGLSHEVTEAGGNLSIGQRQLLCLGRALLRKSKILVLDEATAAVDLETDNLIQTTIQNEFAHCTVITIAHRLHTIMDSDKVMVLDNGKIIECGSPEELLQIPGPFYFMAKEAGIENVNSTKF
Description: Method 4: Measuring Hepatic Transporter Interactions […] […] MRP2 Assay: Human MRP2 inhibition was tested using a BD Gentest Transporter Vesicle Assay Kit. Inside-out vesicles were prepared from insect Sf9 cells infected with baculovirus expressing hMRP2. […] The percent remaining of ATP dependent uptake activity was calculated as uptake activity in the presence of inhibitor divided by the uptake activity in the absence of inhibitor.

[9] = genotype 1b replicon, 72 h incubation

Row | Compound | CypB Kd [1] | IC50 [2] [µM] | Ki [3] [µM] | CypF Kd [4] [µM] | CypA Kd [5] | IC50 [6, 9] [µM] | IC50 [7] [µM] | IC50 [8] [µM] | NIM TDI kinact/Ki ([3]; probe substrate midazolam) [M⁻¹ s⁻¹] | IC50 [6] [µM]
1 | C/C=C/C[C@@H](C)[C@@H](O)[C@H]1C(=O)N[C@@H](CC)C(=O)N(C)[C@H](C)C(=O)N(C)[C@@H]([C@H](C)COCCOC(=O)N2CCN(C)CC2)C(=O)N[C@@H](C(C)C)C(=O)N(C)[C@@H](CC(C)C)C(=O)N[C@@H](C)C(=O)N[C@H](C)C(=O)N(C)[C@@H](CC(C)C)C(=O)N(C)[C@@H](CC(C)C)C(=O)N(C)[C@@H](C(C)C)C(=O)N1C (stereo in doubt) [Compound 2.9, 3-[D-Ala]-4-[(2S,3S)-3-methyl-2-(methylamino)-4-(2-((4-methylpiperazine-1-carbonyl)oxy)ethoxy)butanoyl]-cyclosporin] | 0.5 | 13.3 | > 50 | 0.0004 | 0.9 | 0.058 | 8.7 | 30 | – | –
2 | C/C=C/C[C@@H](C)[C@@H](O)[C@H]1C(=O)N[C@@H](CC)C(=O)N(C)[C@H](C)C(=O)N(C)[C@@H]([C@H](C)CN2CCOCC2)C(=O)N[C@@H](C(C)C)C(=O)N(C)[C@@H](CC(C)C)C(=O)N[C@@H](C)C(=O)N[C@H](C)C(=O)N(C)[C@@H](CC(C)C)C(=O)N(C)[C@@H](CC(C)C)C(=O)N(C)[C@@H](C(C)C)C(=O)N1C [Compound 2.5.2, 3-[D-Ala]-4-[(2S,3R)-3-methyl-2-(methylamino)-4-morpholinobutanoyl]-cyclosporin] (cyclo(A[dA][NMeL][NMeL][NMeV][MeBmt][Abu][dNMeA][X3]V[NMeL])) | 2.9 | 6.3 | > 50 | 0.0022 | 4.3 | 0.1 | 8.2 | 18 | – | –
3 | C/C=C/C[C@@H](C)[C@@H](O)[C@H]1C(=O)N[C@@H](CC)C(=O)N(C)[C@H](C)C(=O)N(C)[C@@H]([C@H](C)COCCN2CCOCC2)C(=O)N[C@@H](C(C)C)C(=O)N(C)[C@@H](CC(C)C)C(=O)N[C@@H](C)C(=O)N[C@H](C)C(=O)N(C)[C@@H](CC(C)C)C(=O)N(C)[C@@H](CC(C)C)C(=O)N(C)[C@@H](C(C)C)C(=O)N1C [Compound 2.8.1, 3-[D-Ala]-4-[(2S,3S)-3-methyl-2-(methylamino)-4-(2-morpholinoethoxy)butanoyl]-cyclosporin] (cyclo(A[dA][NMeL][NMeL][NMeV][MeBmt][Abu][dNMeA][NMeAbu(3S-Me,4-OC2H4Mor)]V[NMeL])) | 0.7 | – | > 50 | 0.0007 | 1.4 | – | 7.6 | 23 | – | –
4 | C/C=C/C[C@@H](C)[C@@H](O)[C@H]1C(=O)N[C@@H](CC)C(=O)N(C)[C@H](C)C(=O)N(C)[C@@H]([C@@H](C)COC)C(=O)N[C@@H](C(C)C)C(=O)N(C)[C@@H](CC(C)C)C(=O)N[C@@H](C)C(=O)N[C@H](C)C(=O)N(C)[C@@H](CC(C)C)C(=O)N(C)[C@@H](CC(C)C)C(=O)N(C)[C@@H](C(C)C)C(=O)N1C [Compound 2.2, 3-[D-Ala]-4-[(2S,3R)-4-methoxy-3-methyl-2-(methylamino)butanoyl]-cyclosporin] (cyclo(A[dA][NMeL][NMeL][NMeV][MeBmt][Abu][dNMeA][X77]V[NMeL])) | 0.8 | 12.6 | – | 0.0008 | 1.7 | – | 1.9 | 15 | 5 | 0.048
5 | C/C=C/C[C@@H](C)[C@@H](O)[C@H]1C(=O)N[C@@H](CC)C(=O)N(C)[C@H](C)C(=O)N(C)[C@@H]([C@H](C)CS(C)(=O)=O)C(=O)N[C@@H](C(C)C)C(=O)N(C)[C@@H](CC(C)C)C(=O)N[C@@H](C)C(=O)N[C@H](C)C(=O)N(C)[C@@H](CC(C)C)C(=O)N(C)[C@@H](CC(C)C)C(=O)N(C)[C@@H](C(C)C)C(=O)N1C [Compound 2.4, 3-[D-Ala]-4-[(2S,3S)-3-methyl-2-(methylamino)-4-(methylsulfonyl)butanoyl]-cyclosporin] (cyclo(A[dA][NMeL][NMeL][NMeV][MeBmt][Abu][dNMeA][X4]V[NMeL])) | 0.6 | 1.9 | > 50 | 0.0006 | 1.5 | 0.095 | 1.4 | 9 | – | –
6 | C/C=C/C[C@@H](C)[C@@H](O)[C@H]1C(=O)N[C@@H](CC)C(=O)N(C)[C@H](C)C(=O)N(C)[C@@H]([C@H](C)CN2CCN(S(C)(=O)=O)CC2)C(=O)N[C@@H](C(C)C)C(=O)N(C)[C@@H](CC(C)C)C(=O)N[C@@H](C)C(=O)N[C@H](C)C(=O)N(C)[C@@H](CC(C)C)C(=O)N(C)[C@@H](CC(C)C)C(=O)N(C)[C@@H](C(C)C)C(=O)N1C [Compound 2.5.5, 3-[D-Ala]-4-[(2S,3R)-3-methyl-2-(methylamino)-4-(4-(methylsulfonyl)piperazin-1-yl)butanoyl]-cyclosporin] (cyclo(A[dA][NMeL][NMeL][NMeV][MeBmt][Abu][dNMeA][X16]V[NMeL])) | 1.9 | 2.8 | – | 0.0017 | 3.3 | 0.066 | 4.8 | 13 | – | –
7 | C/C=C/C[C@@H](C)[C@@H](O)[C@H]1C(=O)N[C@@H](CC)C(=O)N(C)[C@H](C)C(=O)N(C)[C@@H]([C@H](C)COC(=O)N2CCN(C)CC2)C(=O)N[C@@H](C(C)C)C(=O)N(C)[C@@H](CC(C)C)C(=O)N[C@@H](C)C(=O)N[C@H](C)C(=O)N(C)[C@@H](CC(C)C)C(=O)N(C)[C@@H](CC(C)C)C(=O)N(C)[C@@H](C(C)C)C(=O)N1C [Compound 2.5.9, 3-[D-Ala]-4-[(2S,3S)-3-methyl-2-(methylamino)-4-((4-methylpiperazine-1-carbonyl)oxy)butanoyl]-cyclosporin] (cyclo(A[dA][NMeL][NMeL][NMeV][MeBmt][Abu][dNMeA][X5]V[NMeL])) | 0.5 | 17.7 | > 50 | 0.0003 | 0.8 | 0.09 | 6.7 | 21 | – | –
8 | C/C=C/C[C@@H](C)[C@@H](O)[C@H]1C(=O)N[C@@H](CC)C(=O)N(C)[C@H](C)C(=O)N(C)[C@@H]([C@H](C)COCCN2CCS(=O)(=O)CC2)C(=O)N[C@@H](C(C)C)C(=O)N(C)[C@@H](CC(C)C)C(=O)N[C@@H](C)C(=O)N[C@H](C)C(=O)N(C)[C@@H](CC(C)C)C(=O)N(C)[C@@H](CC(C)C)C(=O)N(C)[C@@H](C(C)C)C(=O)N1C [Compound 2.8.2] (cyclo(A[dA][NMeL][NMeL][NMeV][MeBmt][Abu][dNMeA][X7]V[NMeL])) | 0.6 | – | – | 0.0006 | 1.6 | – | 3 | 28 | – | –
9 | C/C=C/C[C@@H](C)[C@@H](O)[C@H]1C(=O)N[C@@H](CC)C(=O)N(C)[C@H](C)C(=O)N(C)[C@@H]([C@@H](C)CN2CCN(CC)CC2)C(=O)N[C@@H](C(C)C)C(=O)N(C)[C@@H](CC(C)C)C(=O)N[C@@H](C)C(=O)N[C@H](C)C(=O)N(C)[C@@H](CC(C)C)C(=O)N(C)[C@@H](CC(C)C)C(=O)N(C)[C@@H](C(C)C)C(=O)N1C [Compound 2.17.2, 3-[D-Ala]-4[(2S,3S)-2-Amino-4-(4-ethyl-piperazin-1-yl)-3-methyl-butanoyl]-cyclosporin] (cyclo(A[dA][NMeL][NMeL][NMeV][MeBmt][Abu][dNMeA][X11]V[NMeL])) | 0.5 | 14.5 | > 50 | 0.0005 | 0.6 | 0.035 | 5.1 | – | – | –
